From paper PMC6934184, “Selective DNA-PKcs inhibition extends the therapeutic index of localized radiotherapy and chemotherapy” (The Journal of Clinical Investigation, 2019)

Target: T1, SPHK2 (Homo sapiens, UniProt Q9NRA0)
T1 construct: purchased Thermo Fisher Scientific (Life Technologies) SelectScreen
Assay: SelectScreen Adapta
Format: biochemical
Settings: ATP 10 µM
Experimental: The in vitro kinase selectivity of NU5455 was determined using the SelectScreen Broad Assay Panel (Thermo Fisher Scientific) involving activity and binding assays (Supplemental Table 1). […] Class IA PI3Ks were measured using the p85α subunit.
Kinase [ATP] % Assay Kinase [ATP] % Assay Kinase [ATP] % Assay Kinase [ATP] % Assay […]
MAPK14 (p38 alpha) Km app 9.7 Z SPHK2 10 3.1 A ICK n/a 0.0 L SGKL (SGK3) Km app -4.6 Z […]
SGK (SGK1) Km app 8.5 Z MAP4K2 (GCK) Km app 2.7 Z TLK2 n/a -0.3 L STK38 (NDR) n/a -5.9 L
MERTK (cMER) Km app 8.3 Z CDK2/cyclin A Km app 2.7 Z TGFBR1 (ALK5) n/a -0.4 L MATK (HYL) Km app -6.3 Z
FYN Km app 8.3 Z EPHA1 Km app 2.7 Z CLK3 Km app -0.5 Z ABL1 E255K Km app -6.6 Z
TEC n/a 8.1 L CDK2/cyclin E1 n/a 2.7 L MAP3K14 (NIK) n/a -0.5 L STK17A (DRAK1) n/a -6.6 L
KIT V654A n/a 8.1 L TESK2 n/a 2.7 L AKT3 (PKB gamma) Km app -0.5 Z JAK2 JH1 JH2 Km app -6.7 Z
ROS1 Km app 8.0 Z SPHK1 Km app 2.7 A MAP3K9 (MLK1) Km app -0.5 Z PRKACB (PRKAC beta) n/a -6.8 L
FGFR3 K650E Km app 7.9 Z AMPK A2/B1/G1 Km app 2.6 Z IKBKB (IKK beta) Km app -0.6 Z PDGFRA (PDGFR alpha) Km app -6.8 Z
RAF1 (cRAF) Y340D Y341D 100 7.9 Z DYRK3 Km app 2.6 Z CAMK2A (CaMKII alpha) Km app -0.6 Z NEK9 Km app -7.2 Z
PI4KA (PI4K alpha) 10 7.8 A CSNK1D (CK1 delta) Km app 2.6 Z PRKCB1 (PKC beta I) Km app -0.7 Z PDK1 Km app -7.3 Z
HIPK2 Km app 7.8 Z ACVR2A n/a 2.5 L TTK n/a -0.7 L RPS6KB1 (p70S6K) Km app -7.8 Z […]

T1 sequence (Q9NRA0 whole entry): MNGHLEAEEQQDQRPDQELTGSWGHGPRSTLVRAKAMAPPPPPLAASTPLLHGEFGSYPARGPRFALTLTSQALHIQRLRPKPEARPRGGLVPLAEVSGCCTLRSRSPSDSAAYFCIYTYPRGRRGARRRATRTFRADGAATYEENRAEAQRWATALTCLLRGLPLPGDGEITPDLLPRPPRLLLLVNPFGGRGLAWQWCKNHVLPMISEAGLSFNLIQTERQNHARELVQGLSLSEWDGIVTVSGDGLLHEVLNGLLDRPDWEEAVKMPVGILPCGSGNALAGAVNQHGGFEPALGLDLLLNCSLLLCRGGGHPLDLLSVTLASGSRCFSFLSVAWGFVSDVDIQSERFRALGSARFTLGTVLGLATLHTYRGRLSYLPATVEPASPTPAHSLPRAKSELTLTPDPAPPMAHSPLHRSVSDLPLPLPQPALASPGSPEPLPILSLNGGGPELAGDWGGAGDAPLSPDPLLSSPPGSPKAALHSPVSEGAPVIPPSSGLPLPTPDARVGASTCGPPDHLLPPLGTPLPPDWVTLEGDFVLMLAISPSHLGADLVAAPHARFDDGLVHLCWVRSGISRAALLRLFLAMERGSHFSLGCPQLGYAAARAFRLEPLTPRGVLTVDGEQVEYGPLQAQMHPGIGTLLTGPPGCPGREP

With CN(C(=O)CN1CCOCC1)c1ccc2sc3c(-c4cccc5c(=O)cc(N6CC7CCC(C6)O7)oc45)cccc3c2c1 [NU5455] the inhibition at 1 µM was 3.1%.
